Reference: paper PMC12040169 (PLOS Biology, 2025)

assay: in vitro; details: human, hela cells

Compound	viability at 28.5 h, 10 µM [%]
Nc1ncnc2c1ccn2[C@@H]1O[C@H](CO)[C@H](O)C1O (stereo partly shown) [CBK201176]	0

same assay, conditions: human, hela cells, % viability

Compound	viability at 28.5 h, 10 µM [%]
Fc1c(F)c(Oc2ccccc2Cl)c(F)c(F)c1/C=C/CN1CCOCC1 [CBK269318C]	96.7
CN1CCC2(CCC1=O)CC(N)c1ccccc1O2 (stereo not shown) [CBK284456]	103
CCNC(=S)NC1CC[C@@]2(C3=CC=CC4C=CC=CC34)CCN(C)[C@H]2C1 (stereo partly shown) [CBK003596C]	91.7
Cc1ccc(S(=O)(=O)N(CC(=O)Nc2ccccc2C)Cc2ccc(Cl)c(Cl)c2)cc1 [CBK264735]	93.3
COC(=O)[C@@H]1Cc2ncn(Cc3ccc(Cl)cc3)c2CN1C(=O)c1ccc(C#N)cc1 [CBK288984]	94.5
Cc1cnc2[nH]c(C(F)(F)F)c(CN3CCCC(CO)C3)c2c1 (stereo not shown) [CBK285167]	93.6
CC(CNC(=O)c1ccc([N+](=O)[O-])o1)N1CCc2sccc2C1 (stereo not shown) [CBK297749]	87.9
Fc1cc(Br)ccc1-c1cn(-c2ccc3[nH]ccc3c2)nn1 [CBK113146]	91.2
Cn1nc(-c2ccc(S(=O)(=O)Nc3nnc(C(F)(F)F)s3)s2)cc1C(F)(F)F [CBK062017]	103
Cc1ccccc1-c1cc(C(=O)Nc2ccc(S(N)(=O)=O)cc2)c2cc(Cl)ccc2n1 [CBK267741]	90
CN(C(=O)C1CCC1)c1nc2c(s1)CCc1c-2cnn1C [CBK281931]	75.9
COc1ccccc1-c1ccccc1CN(C)Cc1ccccc1N1CCOCC1 [CBK286000]	88.7
Cc1cc(C)n(CC(C)C(=O)Nc2cccnc2)n1 (stereo not shown) [CBK307573]	97.5
COc1ccc(C(=O)N2CCC3(CC2)NC(=O)c2ccc(C(F)(F)F)cc2O3)cc1OC [CBK166265]	102
O=C(CCN1CCCC1Cn1cncn1)NCCc1ccccc1 (stereo not shown) [CBK305677]	92.9
CCNC(=S)N(CCc1ccccc1)C1CC(=O)N(c2ccc(F)cc2)C1=O (stereo not shown) [CBK262941]	87.6
O=C(O)c1ccccc1NS(=O)(=O)Cc1ccccc1[N+](=O)[O-] [CBK042373]	91.9
CC(=O)c1c(C)nc2nc(-c3ccncc3)nn2c1C [CBK288552]	106
COc1ccc(C(=O)N2CC[C@H]3CC(=O)N(CCN4CCNC4=O)CC[C@H]3C2)cc1 [CBK288795]	110
C[C@@H](Nc1nc(-c2ccccc2)cnc1N)c1ccccc1 [CBK063728]	98.9
O=C(O)CCCn1cc(NC(=O)Cc2ccccc2)cn1 [CBK269821]	93.9
O=C(O)c1cc(NC(=O)c2cccc(N3C(=O)c4ccc([N+](=O)[O-])cc4C3=O)c2)cc(C(=O)O)c1 [CBK261394]	90.5

Compound	viability at 28.5 h, 10 µM [%]
Cc1cc(C)c(C)c(OCCCNC(=O)Cc2c(C)noc2C)c1 [CBK281506]	100
Cc1cc(NS(=O)(=O)c2ccc(Br)cc2C(F)(F)F)n(C)n1 [CBK067255]	107
Cc1nnc(SCc2ccc(CSc3nnc(C)c(=O)[nH]3)cc2)[nH]c1=O [CBK268085]	86.1
CCC(Sc1ccc2nnc(-c3ccc(C)cc3)n2n1)C(=O)O (stereo not shown) [CBK287524]	104
CCOC(=O)C1(O)CCN(c2ccc(C#N)cc2F)CC1 [CBK304836]	94
CN1CCN(C(=O)c2ccc(NS(=O)(=O)c3ccc(Oc4ccccc4)cc3)cc2)CC1 [CBK034559]	97.4
c1ccc(OCCCCN2CCCC23CCc2[nH]c4ccccc4c2C3)cc1 (stereo not shown) [CBK092200T]	89.8
CN(C)CCN(C)c1nc(-c2ccc3[nH]ccc3c2)cn2ccnc12 [CBK066276]	94.4
Nc1c(-c2cc(F)cc(F)c2)cnc2ncccc12 [CBK083677]	111
COc1ccc(CCCC(=O)NC2CCCCC2C)cc1 (stereo not shown) [CBK026124]	94.3
COc1cccc(CC(=O)N(CCC#N)Cc2ccco2)c1 [CBK304859]	92.5
CCc1ccc(/C=C2/SC(=S)N(CCC(=O)O)C2=O)cc1 [CBK263390]	120
CCN(CC)C(=O)CCn1c(-c2ccc(C)nc2)cc2cccnc21 [CBK282150]	87.2
O=C(CN1CCOCC1)c1ccc(O)o1 [CBK019286]	95.4
O=C(c1ccccc1)N1C[C@@H](c2ccsc2)[C@@H]2CN(Cc3ccccc3)CC[C@@H]21 [CBK285602]	104
Cc1ccc(S(=O)(=O)N=C2NCN(CC(=O)O)CN2)cc1 [CBK261983N]	93.6
OC1CCN(c2nccc(C(F)(F)F)n2)CC1 [CBK038372]	92.1
O=C1OCCN1S(=O)(=O)c1ccc(CN2CCN(Cc3ccc(S(=O)(=O)N4CCOC4=O)cc3)CC2)cc1 [CBK024729]	91.4
O=C(Nc1ccc([C@@H](O)[C@H]2COCC(=O)N2Cc2cccnc2)cc1)c1ccccc1 [CBK289319]	111
CC(=O)Nc1onc(C)c1-c1nc(-c2ccc(Cl)cc2Cl)cs1 [CBK067735]	101
CC(C)(C)OC(=O)Nc1ccc(Oc2ncc(C(F)(F)F)cc2Cl)cc1 [CBK161658]	99.2
O=S1(=O)CCC(SCc2ccccc2)C1 (stereo not shown) [CBK019237]	89.1

Compound	viability at 28.5 h, 10 µM [%]
COc1cc2c(cc1OC)CN(Cc1ccc(OCc3ccccc3)c(OC)c1)CC2 [CBK033974]	93
CN(C)CCn1c([C@@H]2CCCO2)cc2cccnc21 [CBK282288]	105
CN(C)CC1CCCCN1C(=O)C1CC2C=CC1C21CC1 (stereo not shown) [CBK282085]	86.6
Cc1cc(C)n(C2CCN(Cc3ccc4ccccc4n3)CC2)n1 [CBK281622]	87.9
O=C(NCc1ccco1)c1nn(-c2nc3ccccc3s2)c2ccccc12 [CBK048482]	97.4
O=C(c1cncnc1)N1CCC2(CCCNC2)C1 (stereo not shown) [CBK153237C]	89.7
Cc1c(C(=O)Nc2cccc(S(=O)(=O)NCc3ccco3)c2)cnn1-c1ccccc1 [CBK297762]	89.7
CCOc1cc(C(=S)N2CCN(C)CC2)ccc1OCC(=O)N1CCOCC1 [CBK266856]	101
CCS(=O)(=O)NC1CCN(c2nc(C(F)(F)F)nc3ccsc23)CC1 [CBK304593]	108
Cc1c(-c2ccc(Cl)cc2Cl)nc2ccccc2c1C(=O)NCCCc1ccccc1 [CBK262635]	89.4
Cc1nc(COc2ccccc2)sc1C(=O)N1CCC(C(N)=O)CC1 [CBK202603]	103
O=[N+]([O-])c1ccc(CSc2nnc(-c3cnccn3)n2Cc2ccco2)cc1 [CBK267585]	100
S=C(Nc1ccccc1)NC1C2CN3CCN(C2)CC1(c1ccccc1)C3 (stereo not shown) [CBK261936]	88.6
CC(/C=C/c1ccc(N(C)C)cc1)=N\NC(=N)SC1CC(=O)N(c2ccc(C(=O)O)cc2)C1=O (stereo not shown) [CBK262460]	91.6
CCn1cc(CN(C)Cc2csc(C)n2)c2cc(C(=O)O)ncc21 [CBK306950]	116
c1cn2cc(-c3ccoc3)nc(NC3CC3)c2n1 [CBK066720]	102
COc1ccc(C2(CN3CCC(NC(=O)C4CC4)CC3)CC2)cc1 [CBK285358]	101
CC(CC(=O)NCC1(C)COC1)n1cnc2ccccc21 (stereo not shown) [CBK281755]	78.1
CCC(C)(C)c1nnc(NC(=O)COc2ccc(Cl)cc2Cl)s1 [CBK058435]	103
CC(C)OCC(O)C[S+]([O-])Cc1ccccc1 (stereo not shown) [CBK261761]	93.4
CN1CCOc2ccccc2C(=O)NC/C=C/CC2(CCCN(Cc3cc[nH]n3)C2)C1=O (stereo not shown) [CBK292175]	103
Cc1ccc(NC(=O)C2CC=CCC2C(=O)O)cc1NC(=O)c1ccc(Cl)cc1 (stereo not shown) [CBK268980]	92.6

Compound	viability at 28.5 h, 10 µM [%]
COc1ccc(C(NC(=O)N2CCN(C(=O)OCc3ccccc3)CC2)c2ccccc2C)cn1 (stereo not shown) [CBK081469]	91.2
NC(=O)CS(=O)(=O)c1ccc(Cl)cc1 [CBK026373]	95.7
CCN(CCO)c1ccc(Nc2cc(-c3ccsc3)ncn2)cc1 [CBK091000]	89.5
O=C(C1=C(O)C(=O)N(Cc2cccnc2)C1c1ccncc1)c1ccc(Cl)cc1 (stereo not shown) [CBK264513]	94.8
Cc1nc(S)nc(O)c1Cc1ccc(C(=O)O)o1 [CBK266284]	104
CS(=O)(=O)N(CC(=O)O)c1ccc2c(c1)OCCO2 [CBK287151]	96.6
CCN(CC)C(=O)c1ccccc1NS(=O)(=O)c1cc(Br)ccc1OC [CBK045422]	89.6
Cc1cccc(CC(=O)N2CCC(c3ncc(C(=O)Nc4ccc(F)cc4)c(C)n3)CC2)c1 [CBK285885]	101
O=C(O)CNS(=O)(=O)c1cccc2cccnc12 [CBK034462]	85.9
Fc1ccc(CNc2cncc(-c3cc4ccccc4o3)n2)cc1 [CBK066005]	122
COc1ccc(-c2cnn(-c3ccccc3CN(C)C)n2)cc1 [CBK112762]	106
Cc1cc(C)nc(NS(=O)(=O)c2ccc(OC(F)(F)F)cc2)c1 [CBK044711]	90.7
Cc1cccc(C)c1OCC(=O)Nc1cccc(Oc2ccc3c(c2)C(=O)N(c2ccccc2)C3=O)c1 [CBK265499]	100
CCOc1ccc(/N=c2\scc(-c3ccc(OC)c(Br)c3)n2CCc2ccccc2)cc1 [CBK263654B]	74.7
O=C(CSc1nnc(-c2cccnc2)o1)c1ccc(Oc2ccccc2)cc1 [CBK266327]	88.1
Nc1ncc(-c2ccc(Cl)cc2)c(C2CCCN(C(=O)C3CCCC3)C2)n1 (stereo not shown) [CBK285571]	95.1
Cn1cc(C2CCCCCN2C(=O)c2cccc(F)c2)cn1 (stereo not shown) [CBK284970]	102
COC(=O)c1ccc(NC(=O)c2ccc(-n3cccn3)cc2)cc1 [CBK269486]	90.7
COc1cc(C(C)c2cc3c(cc2O)OCO3)cc(OC)c1OC (stereo not shown) [CBK200103]	36.3

same assay, conditions: human, hela cells, % viability, bulk resorufin, single well

Compound	viability at 28.5 h, 10 µM [%]
Cc1ccccc1N1C(=O)NC(=O)/C(=C/NCCCn2ccnc2)C1=O [CBK261829]	107
Cc1cn(-c2ccc(OC(=O)NC(C)(C)C)c(Cl)c2)c(=O)n1C [CBK025991]	106
